From EP4792822A1, “USE OF PEPTIDE AMIDE COMPOUND IN PREPARATION OF DRUG FOR […] AND VOMITING” (Haisco Pharmaceutical Group Co., Ltd., priority 2023, dated 2025)

Test system: tumour subjects planned to receive highly emetogenic chemotherapy for the first time
Assay: Example 4: active-controlled dose-finding study of compound 1 injection for the prevention of chemotherapy-induced nausea and vomiting (CINV)
Type: in vivo, patients
Method: Study period: Treatment duration: Within 120 h after the first administration of highly emetogenic chemotherapeutic agents; Follow-up duration: Day 10 ± 1 after the first administration of highly emetogenic chemotherapeutic agents.
Protocol: This study was a multicentre, randomised, double-blind, active-controlled study. About 180 tumour subjects planned to receive highly emetogenic chemotherapy for the first time were randomised in a 1 : 1 : 1 ratio to three groups, with 60 subjects per group. Pre-chemotherapy study drug administration was completed 30 ± 10 min before the start of administration of the highly emetogenic chemotherapeutic agents. The dosing regimen was as follows: administration was performed in the following order: • 1) Compound 1 (placebo)/compound 1: A single dose was administered 30 ± 10 min before the start of administration of highly emetogenic chemotherapeutic agents, via intravenous bolus injection, with an intravenous bolus injection time of not less than 30 s. • 2) Dolasetron mesylate injection/dolasetron mesylate injection matching placebo: After the administration of compound 1/compound 1 (placebo), 5 ml (100 mg) of dolasetron mesylate injection/matching placebo was administered via intravenous bolus injection without dilution, and the infusion line was flushed with normal saline before and after administration. […]

Compound: CC(=O)N1CC2(CCN(C(=O)[C@@H](CCCCN)NC(=O)[C@@H](CC(C)C)NC(=O)[C@@H](Cc3ccccc3)NC(=O)[C@H](N)Cc3ccccc3)CC2)C1 [Compound 1, (2R)-N-[(1R)-1-(2-acetyl-2,7-diazaspiro[3.5]nonane-7-carbonyl)-5-amino-pentyl]-2-[[(2R)-2-[[(2R)-2-amino-3-phenyl-propionyl]amino]-3-phenylpropionyl]amino]-4-methyl-pentanamide]
- overall safety (Example 4): good overall safety
- effect on CINV (Example 4, with dolasetron/aprepitant/dexamethasone background regimens): preventive and/or ameliorating effect on CINV
